Reference: patent US20250257034A1, “INDOLE DERIVATIVES AS SEROTONERGIC AGENTS USEFUL FOR THE TREATMENT OF DISORDERS RELATED THERETO” (priority 2023, published 2025)

Target: 5-HT2B receptor (Homo sapiens, UniProt P41595)
Assay: h-5HT2B FLIPR calcium mobilization assay in HEK293 cells
Type: cell-based
Parameters: expressed in transfected cells; host or cells: HEK293, stably transfected
Protocol: Compound potency (EC50) and efficacy (Max response) against the human 5-HT2B receptor in stably transfected HEK293 cells was determined in a calcium mobilization-based assay.
Cells were seeded in a total volume of 20 μL into white walled, 384-well microplates and incubated at 37° C. overnight. Prior to testing, cell plating media was exchanged with 20 μL of Dye Loading buffer (HBSS+20 mM HEPES containing 1×Dye, 1×Additive A and 2.5 mM Probenecid). Plates were incubated at 37° C. for 45 mins followed by 15 mins at room temperature.
(§1) 10 μl of assay buffer (HBSS+20 mM HEPES) was added to cells. Intermediate dilution of sample stocks was performed to generate 4×sample in assay buffer. Assay plates, compound plates were loaded into F LIP R instrument. 10 μL of sample was added using F LIP R onboard robotics after 5 seconds of starting calcium measurement. Final assay vehicle concentration was 1%. The results are expressed as a percent efficacy relative to the maximum response of the control ligand (serotonin) in Table 28.
as §1, with “57.” for “28.”

[1] = relative to maximum response of serotonin (Table 28)

Chain of 5-HT2B receptor (P41595 whole entry): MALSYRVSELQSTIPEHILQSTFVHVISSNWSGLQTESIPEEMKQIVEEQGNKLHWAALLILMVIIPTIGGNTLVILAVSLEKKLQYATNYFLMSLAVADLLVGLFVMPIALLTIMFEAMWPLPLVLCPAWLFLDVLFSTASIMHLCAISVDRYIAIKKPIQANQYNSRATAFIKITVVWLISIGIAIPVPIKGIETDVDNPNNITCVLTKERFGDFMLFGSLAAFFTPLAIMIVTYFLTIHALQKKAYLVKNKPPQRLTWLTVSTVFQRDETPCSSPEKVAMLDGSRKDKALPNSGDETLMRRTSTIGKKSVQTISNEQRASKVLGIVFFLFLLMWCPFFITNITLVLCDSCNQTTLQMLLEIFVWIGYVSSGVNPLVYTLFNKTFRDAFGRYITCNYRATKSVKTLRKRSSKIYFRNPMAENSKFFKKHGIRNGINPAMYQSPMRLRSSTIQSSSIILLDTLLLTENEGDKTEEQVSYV

Compound | EC50 [µM] | Emax (% of serotonin) (relative to maximum response of serotonin (Table 57)) | Emax (% of serotonin) [1]
COc1ccc2[nH]cc(CCN3CC[C@H](OC(F)F)C3)c2c1 [(S) I-67, (S)-3-(2-(3-(Difluoromethoxy)pyrrolidin-1-yl)ethyl)-5-methoxy-1H-indole] | > 10 | 4.23 % of serotonin | –
[2H]C([2H])([2H])N(CCc1c[nH]c2ccc(SC)cc12)C([2H])([2H])[2H] [Compound I-1, N,N-Bis(methyl-d3)-2-(5-(methylthio)-1H-indol-3-yl)ethan-1-amine] | > 10 | – | 19.8 % of serotonin
CCN(C)CCc1c[nH]c2ccc(SC)cc12 [Compound I-13, N-Ethyl-N-methyl-2-(5-(methylthio)-1H-indol-3-yl)ethan-1-amine] | > 10 | – | 21.04 % of serotonin
